This passage reports IC50 and concentration results from patent US9370515B2, “Mixed lineage kinase inhibitors and method of treatments” (CALIFIA BIO, INC., priority 2013, dated 2016).

By IC50 is commonly meant the concentration that gives 50% inhibition.

For series [1], the target named is MLK-3 (Homo sapiens, UniProt Q16584). Kind of series: Biochemical assay for the inhibition of kinase activity for MLK-3 (33P-ATP, HOTSPOT filter binding). As to conditions: activated MLK-3 20 nM, ATP 50 μM, myelin basic protein 20 μM, 20 minutes room temperature. The method in brief: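 Activated MLK-3 (20 nM) with myelin basic protein (20 μM) in 20 mM Hepes pH 7.5, MgCl2, EGTA, Brij35, BSA, Na3VO4, DTT, 1% DMSO. Started with 33P-ATP at 50 μM ATP, 20 min at room temperature; % activity by HOTSPOT filter binding.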
Chain of MLK-3 (Q16584 whole entry): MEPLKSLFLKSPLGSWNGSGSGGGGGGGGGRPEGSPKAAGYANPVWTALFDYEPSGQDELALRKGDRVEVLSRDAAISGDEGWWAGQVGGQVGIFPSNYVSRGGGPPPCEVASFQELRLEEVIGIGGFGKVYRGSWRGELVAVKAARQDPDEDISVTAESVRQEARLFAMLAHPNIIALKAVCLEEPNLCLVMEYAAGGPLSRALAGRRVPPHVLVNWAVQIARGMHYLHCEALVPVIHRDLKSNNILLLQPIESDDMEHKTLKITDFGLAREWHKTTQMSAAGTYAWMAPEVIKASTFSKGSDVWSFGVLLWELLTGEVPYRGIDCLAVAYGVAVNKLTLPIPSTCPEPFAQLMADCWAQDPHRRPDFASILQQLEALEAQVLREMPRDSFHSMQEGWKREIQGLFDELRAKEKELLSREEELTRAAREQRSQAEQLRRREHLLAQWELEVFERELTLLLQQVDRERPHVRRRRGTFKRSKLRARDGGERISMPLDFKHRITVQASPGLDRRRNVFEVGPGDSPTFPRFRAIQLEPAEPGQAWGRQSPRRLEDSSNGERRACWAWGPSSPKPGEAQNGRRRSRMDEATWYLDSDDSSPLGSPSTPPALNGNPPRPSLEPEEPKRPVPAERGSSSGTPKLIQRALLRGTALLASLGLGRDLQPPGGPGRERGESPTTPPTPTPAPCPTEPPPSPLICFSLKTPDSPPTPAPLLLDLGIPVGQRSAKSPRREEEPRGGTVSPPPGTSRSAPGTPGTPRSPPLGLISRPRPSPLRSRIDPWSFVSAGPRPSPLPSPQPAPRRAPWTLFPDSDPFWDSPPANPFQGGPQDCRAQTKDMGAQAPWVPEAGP

Series [2] is described as follows: Blood brain barrier penetration: standard murine pharmacokinetic model, plasma and brain concentrations. The class given is in vivo. The settings on record: mouse; brain concentration 3 hrs after single IV injection 10 mg/kg, CL57 BL/6 mice; read-out: Cbrain 3 hrs. The source says: Compounds disclosed herein may be evaluated in pharmacokinetic assays and models to determine absorption, distribution, metabolism, and excretion parameters. The choice and tailoring of in vitro and ex vivo assays and in vivo models will vary according to the route of administration/formulation, indication under study, properties of test compounds, etc., as well as according to such factors as costs, availability of technology and resources, etc. Such parameters are well known in the fields of pharmacology and drug development. It is within the capacity of one skilled in the art to design and carry out, such work, or to outsource it to a capable third party.
Several compounds disclosed herein were evaluated in a standard murine pharmacokinetic model. […] For ease of analysis compounds were dissolved in 5% DMSO, 40% PEG400, and […] to yield a nominal concentration of 2 mg/mL for intravenous administration. Compounds were administered via a single intravenous (IV) injection in CL57 BL/6 mice at 10 mg/kg in DMSO/PEG400/Saline solution. Three mice in each group were used for blood and brain collection at each time point. Blood samples (300 μL) were collected via the retro-orbital vein predose and at 30, 60 and 180 minutes postdose. Blood samples were placed into tubes containing sodium heparin and centrifuged under refrigerated conditions at 8000 rpm for 6 minutes to separate plasma from the samples. The brain of each animal was collected after the final blood collection. The whole tissue was harvested, excised and rinsed by saline, dried by filter paper, and then placed into one tube per tissue per animal. All samples were stored at −20° C. until bioanalysis. Compound concentrations in plasma and brain homogenate were determined using a high performance liquid chromatography/mass spectrometry (HPLC/MS/MS) methods.

In series [3] the target is T1, diverse set of kinases (Homo sapiens, UniProt O14920).
T1 construct: IC50 IKKb; other: kinase IKKb
T1 sequence (O14920 1-756): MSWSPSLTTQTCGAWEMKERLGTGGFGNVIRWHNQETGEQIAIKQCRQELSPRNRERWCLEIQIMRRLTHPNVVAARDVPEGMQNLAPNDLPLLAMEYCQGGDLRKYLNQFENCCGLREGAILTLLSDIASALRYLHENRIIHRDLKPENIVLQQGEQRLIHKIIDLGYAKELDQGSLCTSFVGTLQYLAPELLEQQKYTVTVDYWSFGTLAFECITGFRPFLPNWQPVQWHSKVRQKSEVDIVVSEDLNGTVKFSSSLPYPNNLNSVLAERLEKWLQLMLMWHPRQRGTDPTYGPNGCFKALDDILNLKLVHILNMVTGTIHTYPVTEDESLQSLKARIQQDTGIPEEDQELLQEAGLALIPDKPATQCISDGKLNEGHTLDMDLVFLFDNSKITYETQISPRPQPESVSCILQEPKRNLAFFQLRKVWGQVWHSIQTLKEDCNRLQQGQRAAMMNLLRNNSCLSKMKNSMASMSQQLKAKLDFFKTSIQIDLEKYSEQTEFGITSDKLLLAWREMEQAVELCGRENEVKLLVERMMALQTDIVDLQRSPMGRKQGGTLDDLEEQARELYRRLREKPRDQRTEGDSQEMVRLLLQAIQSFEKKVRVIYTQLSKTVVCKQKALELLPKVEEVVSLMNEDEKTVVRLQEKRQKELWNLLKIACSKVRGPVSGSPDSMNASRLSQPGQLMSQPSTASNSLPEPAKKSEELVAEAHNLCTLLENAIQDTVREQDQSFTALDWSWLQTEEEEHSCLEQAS
Briefly: Protein kinase selectivity: IC50 against a diverse set of kinases, compared with URMC-099. The class given is biochemical. The settings on record: kinase IKKb. An excerpt:
(§1) Protein Kinase Selectivity: MLK-3 inhibitors previously reported in the literature are somewhat promiscuous and inhibit a large number of serine and threonine protein kinases. Compounds of the present invention that show potent inhibition on MLK-3 are very specific for MLK family kinases. […] Journal of Medicinal Chemistry, 2013.

The target in series [4] is T2, diverse set of kinases (Homo sapiens, UniProt O15111).
T2 construct: IC50 IKKa; other: kinase IKKa
T2 sequence (O15111 1-745): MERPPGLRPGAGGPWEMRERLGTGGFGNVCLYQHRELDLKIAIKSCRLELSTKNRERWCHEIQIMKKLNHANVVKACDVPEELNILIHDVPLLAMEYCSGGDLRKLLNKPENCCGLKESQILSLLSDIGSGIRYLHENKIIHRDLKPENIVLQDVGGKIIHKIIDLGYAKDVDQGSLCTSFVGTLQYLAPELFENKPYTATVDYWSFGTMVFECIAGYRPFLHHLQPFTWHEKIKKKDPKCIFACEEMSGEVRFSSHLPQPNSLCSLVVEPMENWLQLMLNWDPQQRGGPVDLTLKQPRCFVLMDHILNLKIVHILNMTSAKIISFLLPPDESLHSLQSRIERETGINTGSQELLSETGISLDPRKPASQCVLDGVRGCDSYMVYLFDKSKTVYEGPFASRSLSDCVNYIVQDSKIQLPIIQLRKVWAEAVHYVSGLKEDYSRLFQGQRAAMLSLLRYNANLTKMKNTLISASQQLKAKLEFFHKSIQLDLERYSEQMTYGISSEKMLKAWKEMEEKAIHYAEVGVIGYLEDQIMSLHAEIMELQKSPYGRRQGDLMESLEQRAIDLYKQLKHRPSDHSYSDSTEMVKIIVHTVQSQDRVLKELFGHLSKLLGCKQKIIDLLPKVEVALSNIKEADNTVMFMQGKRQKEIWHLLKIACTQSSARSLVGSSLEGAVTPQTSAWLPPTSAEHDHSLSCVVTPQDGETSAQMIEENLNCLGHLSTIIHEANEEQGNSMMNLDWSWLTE
The series is described as above. The class given is biochemical. The settings on record: kinase IKKa.
Text: as §1

In series [5] the target is diverse set of kinases (Homo sapiens, UniProt P00519, T315I). Described as above. Format: biochemical. As to conditions: kinase ABL1; read-out: IC50 ABL1(T31SI).
Text: as §1

Series [6] addresses T3, diverse set of kinases (Homo sapiens, UniProt P06213).
T3 construct: IC50 IR; other: kinase IR
Described as above. The class given is biochemical. As to conditions: kinase IR.
Text: as §1

For series [7], the target named is T4, diverse set of kinases (Homo sapiens, UniProt P24941).
T4 construct: IC50 CDK2; other: kinase CDK2
The description is as above. The class given is biochemical. The settings on record: kinase CDK2.
Text: as §1

T3 sequence (P06213 whole entry): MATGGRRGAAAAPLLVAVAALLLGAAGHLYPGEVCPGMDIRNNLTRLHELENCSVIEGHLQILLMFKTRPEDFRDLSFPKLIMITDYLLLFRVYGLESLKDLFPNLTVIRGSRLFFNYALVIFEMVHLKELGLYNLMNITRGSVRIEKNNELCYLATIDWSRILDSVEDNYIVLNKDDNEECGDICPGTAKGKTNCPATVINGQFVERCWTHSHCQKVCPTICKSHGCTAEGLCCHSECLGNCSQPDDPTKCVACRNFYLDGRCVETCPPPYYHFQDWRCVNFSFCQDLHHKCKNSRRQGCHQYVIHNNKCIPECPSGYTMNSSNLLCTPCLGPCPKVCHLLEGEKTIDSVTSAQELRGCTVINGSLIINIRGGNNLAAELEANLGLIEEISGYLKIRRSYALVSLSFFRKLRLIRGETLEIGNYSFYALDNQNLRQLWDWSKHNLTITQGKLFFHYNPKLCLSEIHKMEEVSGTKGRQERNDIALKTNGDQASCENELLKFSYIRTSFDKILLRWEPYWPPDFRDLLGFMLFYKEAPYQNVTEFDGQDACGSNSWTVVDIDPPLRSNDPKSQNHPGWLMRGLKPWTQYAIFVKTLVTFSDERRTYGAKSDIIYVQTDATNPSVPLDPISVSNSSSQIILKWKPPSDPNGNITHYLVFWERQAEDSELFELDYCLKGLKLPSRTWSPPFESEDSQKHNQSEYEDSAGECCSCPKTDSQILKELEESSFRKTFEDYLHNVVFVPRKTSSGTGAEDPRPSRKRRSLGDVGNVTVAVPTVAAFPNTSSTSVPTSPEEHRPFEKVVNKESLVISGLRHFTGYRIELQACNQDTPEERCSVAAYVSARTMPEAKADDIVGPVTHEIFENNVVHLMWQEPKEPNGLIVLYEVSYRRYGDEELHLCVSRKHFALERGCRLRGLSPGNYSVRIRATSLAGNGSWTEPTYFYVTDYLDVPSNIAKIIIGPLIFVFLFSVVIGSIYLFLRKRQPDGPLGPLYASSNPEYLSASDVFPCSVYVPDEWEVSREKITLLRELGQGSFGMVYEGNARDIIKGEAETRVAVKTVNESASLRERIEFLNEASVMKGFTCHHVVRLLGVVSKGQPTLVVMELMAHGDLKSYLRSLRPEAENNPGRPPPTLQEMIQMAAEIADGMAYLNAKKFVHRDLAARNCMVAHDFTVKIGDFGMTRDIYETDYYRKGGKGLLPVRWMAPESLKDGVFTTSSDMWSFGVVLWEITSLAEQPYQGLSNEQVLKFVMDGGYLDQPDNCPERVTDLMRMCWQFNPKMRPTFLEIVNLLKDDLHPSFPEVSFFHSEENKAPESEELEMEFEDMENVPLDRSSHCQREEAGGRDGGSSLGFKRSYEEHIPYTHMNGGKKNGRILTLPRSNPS

Take `COc1ccc(Nc2ccc3ncc(-c4cc5ccccc5s4)n3n2)cc1OC` [Compound 12, 3-(benzo[b]thiophen-2-yl)-N-(3,4-dimethoxyphenyl)imidazo[1,2-b]pyridazin-6-amine]: the half-inhibitory concentration (IC50) in series [1] was 0.1 to 0.5 µM; in series [3], greater than 10 µM; in series [4], greater than 10 µM; in series [5] it was greater than 10 µM; in series [6] it was greater than 10 µM; in series [7] it was 19.4 µM. Further, the concentration at 3 h in series [2] was 1280 ng/g.

In the case of `COc1ccc(Nc2ccc3ncc(-c4cc5cc(OC)c(OC)cc5s4)n3n2)cc1OC` [Compound 67, 3-(5,6-dimethoxybenzo[b]thiophen-2-yl)-N-(3,4-dimethoxyphenyl)imidazo[1,2-b]pyridazin-6-amine], the half-maximal inhibitory concentration (IC50) in series [1] is less than 0.1 µM; in series [3], greater than 10 µM; in series [4], greater than 10 µM; in series [5] it was greater than 10 µM; in series [6] it was greater than 10 µM; in series [7], greater than 10 µM. Moreover, the concentration at 3 h in series [2] amounted to 566 ng/g.

Turning to `O[C@H]1CC[C@H](Nc2ccc3ncc(-c4cc5ccccc5s4)n3n2)CC1` [Compound 105, trans-4-(3-(benzo[b]thiophen-2-yl)imidazo[1,2-b]pyridazin-6-ylamino)cyclohexanol], the half-maximal inhibitory concentration (IC50) in series [1] was 0.1 to 0.5 µM; in series [3], greater than 10 µM; in series [4], greater than 10 µM; in series [5], greater than 10 µM; in series [6], greater than 10 µM; in series [7] it was 1.03 µM.

As for `COc1cc2cc(-c3cnc4ccc(N[C@H]5CC[C@H](O)CC5)nn34)sc2cc1OC` [Compound 169, trans-4-(3-(5,6-dimethoxybenzo[b]thiophen-2-yl)imidazo[1,2-b]pyridazin-6-ylamino)cyclohexanol], the IC50 in series [1] is less than 0.1 µM; in series [3], greater than 10 µM; in series [4], greater than 10 µM; in series [5], greater than 10 µM; in series [6], greater than 10 µM; in series [7], 8.26 µM.

For `COc1cccc2cc(-c3cnc4ccc(N[C@H]5CC[C@H](O)CC5)nn34)sc12` [Compound 170, trans-4-(3-(7-methoxybenzo[b]thiophen-2-yl)imidazo[1,2-b]pyridazin-6-ylamino)cyclohexanol], the IC50 in series [1] was less than 0.1 µM; in series [3], greater than 10 µM; in series [4], greater than 10 µM; in series [5], greater than 10 µM; in series [6], greater than 10 µM; in series [7], greater than 10 µM.

Turning to `COc1cc2cc(-c3cnc4ccc(N(C)[C@H]5CC[C@H](OC)CC5)nn34)sc2cc1OC` [Compound 175, 3-(5,6-dimethoxybenzo[b]thiophen-2-yl)-N-(trans-4-methoxycyclohexyl)-N-methylimidazo[1,2-b]pyridazin-6-amine], the IC50 in series [1] was less than 0.1 µM. Further, in series [2], the concentration at 3 h was determined as 1880 ng/g.

Compound `COc1cncc2cc(-c3cnc4ccc(N[C@H]5CC[C@H](O)CC5)nn34)sc12` [Compound 213, trans-4-(3-(7-methoxythieno[3,2-c]pyridin-2-yl)imidazo[1,2-b]pyridazin-6-ylamino)cyclohexanol] registered an IC50 in series [1] of less than 0.1 µM.

Compound `COc1ccc(Nc2ccc3ncc(-c4cc5cncc(C)c5s4)n3n2)cc1OC` [Compound 214, N-(3,4-dimethoxyphenyl)-3-(7-methylthieno[3,2-c]pyridin-2-yl)imidazo[1,2-b]pyridazin-6-amine] gave an IC50 in series [1] of 0.1 to 0.5 µM.

As for `Cc1cncc2cc(-c3cnc4ccc(N[C@H]5CC[C@H](O)CC5)nn34)sc12` [Compound 215, trans-4-(3-(7-methylthieno[3,2-c]pyridin-2-yl)imidazo[1,2-b]pyridazin-6-ylamino)cyclohexanol], the IC50 in series [1] is less than 0.1 µM.

With `CO[C@H]1CC[C@H](Nc2ccc3ncc(-c4cc5cncc(C)c5s4)n3n2)CC1` [Compound 216], the IC50 in series [1] lay within 0.1 to 0.5 µM.

In the case of `COc1cncc2cc(-c3cnc4ccc(N[C@H]5CC[C@H](OC)CC5)nn34)sc12` [Compound 217], in series [1], the IC50 was 0.1 to 0.5 µM.

`COc1ccc(Nc2ccc3ncc(-c4cc5ccncc5s4)n3n2)cc1OC` [Compound 218, N-(3,4-dimethoxyphenyl)-3-(thieno[2,3-c]pyridin-2-yl)imidazo[1,2-b]pyridazin-6-amine] showed a half-inhibitory concentration (IC50) in series [1] of less than 0.1 µM.

Regarding `O[C@H]1CC[C@H](Nc2ccc3ncc(-c4cc5ccncc5s4)n3n2)CC1` [Compound 219, trans-4-(3-(thieno[2,3-c]pyridin-2-yl)imidazo[1,2-b]pyridazin-6-ylamino)cyclohexanol], the half-maximal inhibitory concentration (IC50) in series [1] was less than 5 µM.

`CO[C@H]1CC[C@H](N(C)c2ccc3ncc(-c4cc5cncc(C)c5s4)n3n2)CC1` [Compound 220, N-((1r,4r)-4-methoxycyclohexyl)-N-methyl-3-(7-methylthieno[3,2-c]pyridin-2-yl)imidazo[1,2-b]pyridazin-6-amine]: the IC50 in series [1] lay within 0.1 to 0.5 µM.

As for `Cc1cncc2cc(-c3cnc4ccc(N(C)[C@H]5CC[C@H](O)CC5)nn34)sc12` [Compound 221, trans-4-(N-methyl-N-(3-(7-methylthieno[3,2-c]pyridin-2-yl)imidazo[1,2-b]pyridazin-6-yl)amino)cyclohexanol], in series [1], the IC50 was 0.1 to 0.5 µM.
